Source: publication PMC9252067 (Cell chemical biology, 2021)

Columns and labels:
[1] = system: M. tuberculosis H37Rv; details: for EC50: M. tuberculosis growth, 1 week incubation, mean ± SD (n = 3) for JCP276, BMB034, BMB038, others single dose-response experiment (n = 1)
[2] = system: BMB034-labeled proteins (serine hydrolases) of M. tuberculosis H37Rv; assay: Competitive ABPP in live cells with BMB034 probe, gel-based; details: pre-treatment of cultures 1 h; 1 μM BMB034 labeling; JCP276 at 1 or 10 μM

Compound | EC50 [1] | competition with BMB034 labeling [2] | inhibition of M. tuberculosis growth ([1]; negative control compound)
C#CCCOc1oc(=O)c2cc(NC(=O)Nc3ccccc3)ccc2c1Cl [BMB034, 1-(3-(but-3-yn-1-yloxy)-4-chloro-1-oxo-1H-isochromen-7-yl)-3-phenylurea] | 8.7 ± 1.1 µM | – | –
C#Cc1ccc(NC(=O)Nc2ccc3c(Cl)c(OCCCBr)oc(=O)c3c2)cc1 [BMB038, 1-(3-(3-bromopropoxy)-4-chloro-1-oxo-1H-isochromen-7-yl)-3-(4-ethynylphenyl)urea] | 36 ± 11 µM | – | –
O=c1oc(Cl)c(Cl)c2ccccc12 [DCI, 3,4-dichloroisocoumarin] | – | did not compete | does not inhibit M. tuberculosis growth
